This note sets out measurements from patent US12091411B2, “IRAK degraders and uses thereof” (Kymera Therapeutics, Inc., priority 2022, dated 2024).

Like-named read-outs stand apart in the source and are kept apart here. Some results are limits rather than exact numbers.

The test has as its target T1, IRAK4 (Homo sapiens, UniProt Q9NWZ3).
T1 construct: Degradation of IRAK4 in OCI-LY10 was quantitatively measured using Meso Scale Discovery technology; endogenous in cells; host or cells: OCI-LY10
T1 sequence (Q9NWZ3 1-460): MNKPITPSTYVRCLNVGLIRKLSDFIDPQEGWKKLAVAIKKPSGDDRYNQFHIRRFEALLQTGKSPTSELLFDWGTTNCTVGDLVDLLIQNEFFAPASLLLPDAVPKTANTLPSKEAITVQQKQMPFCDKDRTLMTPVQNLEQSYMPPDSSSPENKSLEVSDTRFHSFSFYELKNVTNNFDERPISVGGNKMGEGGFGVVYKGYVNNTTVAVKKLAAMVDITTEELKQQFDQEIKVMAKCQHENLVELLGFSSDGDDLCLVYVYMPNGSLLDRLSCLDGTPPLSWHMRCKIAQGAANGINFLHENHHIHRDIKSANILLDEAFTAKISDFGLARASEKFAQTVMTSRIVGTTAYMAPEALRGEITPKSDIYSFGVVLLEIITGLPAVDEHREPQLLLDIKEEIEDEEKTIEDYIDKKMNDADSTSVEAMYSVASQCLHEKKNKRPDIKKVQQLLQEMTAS
Kind of test: IRAK4 MSD Degradation in OCI-LY10. The format is cell-based. The conditions noted are these: OCI-LY10 cells, MSD. The gist of the method:
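OCI-LY10 cells exposed to 8-point 1:3 compound series (top 1 to 10 μM) for 4 to 24 h at 37 °C, 5% CO2. Lysate IRAK4 quantified by MSD sandwich immunoassay. DC50 from three-parameter logistic fit, binned A (<0.01 μM) to D (>0.2 μM or not tested).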

The mark [1] stands for this setting: 4 hrs incubation, read-out: IRAK4 degradation in OCI-LY10 at 4 hrs: DC50.
Where [2] appears, read: 24 hrs incubation, read-out: IRAK4 degradation in OCI-LY10 at 24 hrs: DC50.

One may read the DC50 as the midpoint of the concentration-degradation curve.

Regarding `Cn1c(=O)n(C2CCC(=O)NC2=O)c2cccc(C#CCN3CCN(C[C@H]4CC[C@H](n5cc(NC(=O)c6cnn7ccc(C8COC8)nc67)c(C(F)F)n5)CC4)CC3)c21` (stereo partly drawn) [I-351], the DC50 reads like this: under setting [1], more than 0.2 µM; under setting [2], more than 0.2 µM.
Regarding `Cn1c(=O)n(C2CCC(=O)NC2=O)c2cccc(C#CCN3CCN(C[C@H]4CC[C@H](n5cc(NC(=O)c6cnn7ccc(N8CC(C)(C)OC(C)(C)C8)nc67)c(C(F)F)n5)CC4)CC3)c21` (stereo partly drawn) [I-352], the half-maximal degradation concentration (DC50) was 0.01 to 0.1 µM under setting [1] and more than 0.2 µM under setting [2].
The matching figures for `Cn1c(=O)n(C2CCC(=O)NC2=O)c2cccc(C#CCN3CCN(C[C@H]4CC[C@H](n5cc(NC(=O)c6cnn7ccc([C@@H]8CCOC8)nc67)c(C(F)F)n5)CC4)CC3)c21` (stereo partly drawn) [I-353]: more than 0.2 µM and more than 0.2 µM.
Taken in the same sequence, the figures for `Cn1c(=O)n(C2CCC(=O)NC2=O)c2cccc(C#CCN3CCN(C[C@H]4CC[C@H](n5cc(NC(=O)c6cnn7ccc([C@H]8CCOC8)nc67)c(C(F)F)n5)CC4)CC3)c21` (stereo partly drawn) [I-354] were more than 0.2 µM and more than 0.2 µM.
With `CN(C[C@H]1CC[C@H](n2cc(NC(=O)c3cnn4ccc(N5CC(C)(C)OC(C)(C)C5)nc34)c(C(F)F)n2)CC1)C1CCN(c2cccc3c2n(C)c(=O)n3C2CCC(=O)NC2=O)CC1` (stereo partly drawn) [I-355], the DC50 runs as follows: under setting [1], 0.01 to 0.1 µM; under setting [2], more than 0.2 µM.
On to `CN(C[C@H]1CC[C@H](n2cc(NC(=O)c3cnn4ccc(N5CCOC6(CC6)C5)nc34)c(C(F)F)n2)CC1)C1CCN(c2cccc3c2n(C)c(=O)n3C2CCC(=O)NC2=O)CC1` (stereo partly drawn) [I-356], for which the half-maximal degradation concentration (DC50) runs as follows: under setting [1], more than 0.2 µM; under setting [2], less than 0.01 µM.
Consider `CN(C[C@H]1CC[C@H](n2cc(NC(=O)c3cnn4ccc(N5CCOC6(CCC6)C5)nc34)c(C(F)F)n2)CC1)C1CCN(c2cccc3c2n(C)c(=O)n3C2CCC(=O)NC2=O)CC1` (stereo partly drawn) [I-357], for which the DC50 was more than 0.2 µM under setting [1] and less than 0.01 µM under setting [2].
The matching figures for `CC1CN(c2ccn3ncc(C(=O)Nc4cn([C@H]5CC[C@H](CN(C)C6CCN(c7cccc8c7n(C)c(=O)n8C7CCC(=O)NC7=O)CC6)CC5)nc4C(F)F)c3n2)CCO1` (stereo partly drawn) [I-358]: more than 0.2 µM and more than 0.2 µM.
As for `CC1CN(c2ccn3ncc(C(=O)Nc4cn([C@H]5CC[C@H](CN(C)C6CCN(c7cccc8c7n(C)c(=O)n8C7CCC(=O)NC7=O)CC6)CC5)nc4C(F)F)c3n2)CC(C)O1` (stereo partly drawn) [I-359], the DC50 under setting [1] was more than 0.2 µM and the 50% degradation concentration (DC50) under setting [2] was more than 0.2 µM.
As for `CN(C[C@H]1CC[C@H](n2cc(NC(=O)c3cnn4ccc(N5C[C@H]6CC[C@@H](C5)O6)nc34)c(C(F)F)n2)CC1)C1CCN(c2cccc3c2n(C)c(=O)n3C2CCC(=O)NC2=O)CC1` (stereo partly drawn) [I-360], the half-maximal degradation concentration (DC50) under setting [1] is more than 0.2 µM and the DC50 under setting [2] was less than 0.01 µM.
Take `CN(C[C@H]1CC[C@H](n2cc(NC(=O)c3cnn4ccc(C5COC5)nc34)c(C(F)F)n2)CC1)C1CCN(c2cccc3c2n(C)c(=O)n3C2CCC(=O)NC2=O)CC1` (stereo partly drawn) [I-361]: the DC50 runs as follows: under setting [1], more than 0.2 µM; under setting [2], more than 0.2 µM.
As for `Cn1c(=O)n(C2CCC(=O)NC2=O)c2cccc([C@H]3CC[C@H](CN4CCN(C[C@H]5CC[C@H](n6cc(NC(=O)c7cnn8ccc(N9C[C@H]%10C[C@@H]9CO%10)nc78)c(C(F)F)n6)CC5)CC4)CC3)c21` (stereo partly drawn) [I-362], the DC50 was less than 0.01 µM under setting [1] and more than 0.2 µM under setting [2].
For `Cn1c(=O)n(C2CCC(=O)NC2=O)c2cccc(N3CC[C@@H](CN4CCN(C[C@H]5CC[C@H](n6cc(NC(=O)c7cnn8ccc(N9C[C@H]%10C[C@@H]9CO%10)nc78)c(C(F)F)n6)CC5)CC4)C3)c21` (stereo partly drawn) [I-363], the DC50 under setting [1] is more than 0.2 µM and the half-maximal degradation concentration (DC50) under setting [2] is more than 0.2 µM.
On to `Cn1c(=O)n(C2CCC(=O)NC2=O)c2cccc(N3CC[C@H](CN4CCN(C[C@H]5CC[C@H](n6cc(NC(=O)c7cnn8ccc(N9C[C@H]%10C[C@@H]9CO%10)nc78)c(C(F)F)n6)CC5)CC4)C3)c21` (stereo partly drawn) [I-364], for which the 50% degradation concentration (DC50) was more than 0.2 µM under setting [1] and more than 0.2 µM under setting [2].
In the case of `Cn1c(=O)n(C2CCC(=O)NC2=O)c2cccc(N3CCN([C@@H]4CCN(C[C@H]5CC[C@H](n6cc(NC(=O)c7cnn8ccc(N9C[C@H]%10C[C@@H]9CO%10)nc78)c(C(F)F)n6)CC5)CC4(F)F)CC3)c21` (stereo partly drawn) [I-365], the DC50 under setting [1] is more than 0.2 µM and the DC50 under setting [2] was more than 0.2 µM.
As for `Cn1c(=O)n(C2CCC(=O)NC2=O)c2cccc(N3CCN([C@H]4CCN(C[C@H]5CC[C@H](n6cc(NC(=O)c7cnn8ccc(N9C[C@H]%10C[C@@H]9CO%10)nc78)c(C(F)F)n6)CC5)CC4(F)F)CC3)c21` (stereo partly drawn) [I-366], the half-maximal degradation concentration (DC50) was more than 0.2 µM under setting [1] and more than 0.2 µM under setting [2].
For `Cn1c(=O)n(C2CCC(=O)NC2=O)c2cccc(N3CCC(N4CCN(C[C@H]5CC[C@H](n6cc(NC(=O)c7cnn8ccc(N9C[C@H]%10C[C@@H]9CO%10)nc78)c(C(F)F)n6)CC5)CC4)CC3)c21` (stereo partly drawn) [I-367], the 50% degradation concentration (DC50) is more than 0.2 µM under setting [1] and more than 0.2 µM under setting [2].
`Cn1c(=O)n(C2CCC(=O)NC2=O)c2cccc(N3CCC(N(C[C@H]4CC[C@H](n5cc(NC(=O)c6cnn7cccnc67)c(C(F)F)n5)CC4)C(F)(F)F)CC3)c21` (stereo partly drawn) [I-368]: the DC50 was more than 0.2 µM under setting [1] and more than 0.2 µM under setting [2].
On to `Cn1c(=O)n(C2CCC(=O)NC2=O)c2cccc(C#CCN3CCN(Cc4ccc(-n5cc(NC(=O)c6cnn7ccc(N8C[C@H]9C[C@@H]8CO9)nc67)c(C(F)F)n5)cc4)CC3)c21` (stereo partly drawn) [I-369], for which the half-maximal degradation concentration (DC50) runs as follows: under setting [1], less than 0.01 µM; under setting [2], more than 0.2 µM.
The matching figures for `Cn1c(=O)n(C2CCC(=O)NC2=O)c2cccc(C#CCOC3CCN(Cc4ccc(-n5cc(NC(=O)c6cnn7ccc(N8C[C@H]9C[C@@H]8CO9)nc67)c(C(F)F)n5)cc4)CC3)c21` (stereo partly drawn) [I-370]: 0.01 to 0.1 µM and more than 0.2 µM.
The matching figures for `Cn1c(=O)n(C2CCC(=O)NC2=O)c2cccc(C#CCOc3ccc(CN4CCC(n5cc(NC(=O)c6cnn7ccc(N8CC9C[C@@H]8CO9)nc67)c(C(F)F)n5)CC4)cc3)c21` (stereo partly drawn) [I-371]: more than 0.2 µM and more than 0.2 µM.
Taken in the same sequence, the figures for `Cn1c(=O)n(C2CCC(=O)NC2=O)c2cccc(C#CCc3ccc(CN4CCC(n5cc(NC(=O)c6cnn7ccc(N8CC9C[C@@H]8CO9)nc67)c(C(F)F)n5)CC4)cc3)c21` (stereo partly drawn) [I-372] were more than 0.2 µM and more than 0.2 µM.
`CN(CC1CCN(c2cccc3c2n(C)c(=O)n3C2CCC(=O)NC2=O)CC1)c1ccc(-n2cc(NC(=O)c3cnn4cccnc34)c(C(F)F)n2)cc1` (stereo not drawn) [I-373]: the DC50 under setting [1] was more than 0.2 µM and the DC50 under setting [2] was more than 0.2 µM.
For the molecule `Cn1c(=O)n(C2CCC(=O)NC2=O)c2cccc(C#CCC3CCN(C[C@H]4CC[C@H](n5cc(NC(=O)c6cnn7ccc(N8C[C@H]9C[C@@H]8CO9)nc67)c(C(F)F)n5)CC4)CC3(F)F)c21` (stereo partly drawn) [I-374], the 50% degradation concentration (DC50) was 0.01 to 0.1 µM under setting [1] and more than 0.2 µM under setting [2].
Taken in the same sequence, the figures for `Cn1c(=O)n(C2CCC(=O)NC2=O)c2cccc(C#CCN3CCC(C[C@H]4CC[C@H](n5cc(NC(=O)c6cnn7ccc(N8C[C@H]9C[C@@H]8CO9)nc67)c(C(F)F)n5)CC4)C(F)(F)C3)c21` (stereo partly drawn) [I-375] were more than 0.2 µM and more than 0.2 µM.
As for `CN(C[C@H]1CC[C@H](n2cc(NC(=O)c3cnn4cccnc34)c(C(F)F)n2)CC1)C1CCN(c2cccc3c2n(C)c(=O)n3C2CCC(=O)NC2=O)CC1(F)F` (stereo partly drawn) [I-376], the half-maximal degradation concentration (DC50) reads like this: under setting [1], more than 0.2 µM; under setting [2], more than 0.2 µM.
Consider `CN(Cc1ccc(-n2cc(NC(=O)c3cnn4cccnc34)c(C(F)F)n2)cc1)C1CCN(c2cccc3c2n(C)c(=O)n3C2CCC(=O)NC2=O)CC1(F)F` (stereo not drawn) [I-377], for which the 50% degradation concentration (DC50) was more than 0.2 µM under setting [1] and more than 0.2 µM under setting [2].
In the case of `CN(C[C@H]1CC[C@H](n2cc(NC(=O)c3cnn4cccnc34)c(C(F)F)n2)CC1)c1ccc(-c2cccc3c2n(C)c(=O)n3C2CCC(=O)NC2=O)cc1` (stereo partly drawn) [I-378], the 50% degradation concentration (DC50) under setting [1] was more than 0.2 µM and the 50% degradation concentration (DC50) under setting [2] was more than 0.2 µM.
On to `Cn1c(=O)n(C2CCC(=O)NC2=O)c2cccc(C#CC[C@H]3CN(CC4CCC(n5cc(NC(=O)c6cnn7ccc(N8C[C@H]9C[C@@H]8CO9)nc67)c(C(F)F)n5)CC4)CCO3)c21` (stereo partly drawn) [I-379], for which the DC50 under setting [1] is more than 0.2 µM and the 50% degradation concentration (DC50) under setting [2] is more than 0.2 µM.
Turning to `Cn1c(=O)n(C2CCC(=O)NC2=O)c2cccc(C#CC[C@H]3CN(Cc4ccc(-n5cc(NC(=O)c6cnn7ccc(N8C[C@H]9C[C@@H]8CO9)nc67)c(C(F)F)n5)cc4)CCO3)c21` (stereo partly drawn) [I-380], the DC50 under setting [1] was more than 0.2 µM and the DC50 under setting [2] is more than 0.2 µM.
As to `Cn1c(=O)n(C2CCC(=O)NC2=O)c2cccc(C[C@H]3CN(C[C@H]4CC[C@H](n5cc(NC(=O)c6cnn7cccnc67)c(C(F)F)n5)CC4)CCO3)c21` (stereo partly drawn) [I-381], the DC50 under setting [1] was more than 0.2 µM and the half-maximal degradation concentration (DC50) under setting [2] is more than 0.2 µM.
As to `Cn1c(=O)n(C2CCC(=O)NC2=O)c2cccc(C[C@H]3CN(Cc4ccc(-n5cc(NC(=O)c6cnn7cccnc67)c(C(F)F)n5)cc4)CCO3)c21` (stereo partly drawn) [I-382], the DC50 is, setting by setting: under setting [1], more than 0.2 µM; under setting [2], more than 0.2 µM.
As to `Cn1c(=O)n(C2CCC(=O)NC2=O)c2cccc(C[C@H]3CN(Cc4ccc(-n5cc(NC(=O)c6cnn7ccc(N8C[C@H]9C[C@@H]8CO9)nc67)c(C(F)F)n5)cc4)CCO3)c21` (stereo partly drawn) [I-384], the DC50 under setting [1] was more than 0.2 µM and the DC50 under setting [2] was more than 0.2 µM.
